According to paper PMC10780823, “Innovative Approach to Enhance Bioavailability of Birch Bark Extracts: Novel Method of Oleogel Development Contrasted with Other Dispersed Systems” (Plants, 2024):
“Also recorded” adds a separate entry of the source.

Tests used:
[1] = Content of BBE compounds in rat tissues after repeated peroral oleogel administration; conditions: for Content in heart, liver, kidney, brain tissues: oleogel half dose daily 7 days, 24 h after last administration, level of quantification 50 ng/g
[2] = male, Wistar, rat, in vivo
[3] = oral in olive oil, 200 mg/kg, mice; cited from earlier work
[4] = Betulin, lupeol and betulinic acid in rat blood plasma after peroral administration of BBE dispersed systems (LC/MS/MS)
[5] = Pozharitskaya study: betulin in blood plasma after endotracheal administration; format: in vivo, rat; conditions: cross-study comparison
[6] = set-up: method as in PMID 27155877; conditions: endotracheal route; nanoparticles 25.2 mg/kg; cited from earlier work
[7] = Oxidative stability (Oxipres, high-pressure oxygen bomb method); format: physicochemical; conditions: antioxidants 0.33%
Description: Due to their high oil content, oleogels are characterized by instability in an oxygen environment, so at the beginning of the study, an oxidative stability test of the oleogel was performed, which was compared with a pure sunflower oil sample and an oil sample containing TBHQ (tertiary butylhydroquinone).
To determine the oxidative stability, the oleogel was compared with a sunflower oil alone (blank sample) and a sample of sunflower oil with the addition of TBHQ (tertiary butylhydroquinone), which is widely used as an effective food antioxidant. TBHQ was added to the oil at a concentration equivalent to the concentration of polyphenols in the oleogel—0.33% (determined in previous studies).
An Oxipres ML 3,047,312 machine (Mikrolab Aarhus, Aarhus, Denmark) was used to determine oxidative stability. This equipment is a modification of the high-pressure oxygen bomb method (by standard ASTM D942), the principle of which is to oxidize substrates with oxygen. Enough sample was weighed into glass containers to contain 5 g of substrate. […] The protection factor (PF) is calculated according to the formula PF = […], where IPx is the induction period for the sample with antioxidant additives, hours; IPk is the induction period for the sample without antioxidant additives or the “blank sample”, hours. Using that formula, the oxidative stability was determined and compared among samples.

[8] = oleogel half dose daily for 7 days

With `C=C(C)[C@@H]1CC[C@]2(C)CC[C@]3(C)[C@H](CC[C@@H]4[C@@]5(C)CC[C@H](O)C(C)(C)[C@@H]5CC[C@]43C)[C@@H]12` [lupeol] the “Lupeol content in brain” value [1, 8] was “not found”, the “Lupeol content in kidneys” value [1, 8] was “about 250 ng/g tissue” and the “Lupeol content in liver” value [1, 8] was “about 21 ng/g tissue”. For the same molecule, the “Lupeol content in heart” value [2] was “about 250 ng/g tissue”, the “Lupeol concentration in blood plasma” value [3] was 6 ng/µL and the “Lupeol bioavailability from the oleogel, times better than betulin bioavailability” value ([4]; considering the lower dose of lupeol) was 20 times. For the same molecule, the “Lupeol exposure, times higher than betulin exposure” value ([4]; peroral BBE systems) was “about 3 times”.
For `C=C(C)[C@@H]1CC[C@]2(CO)CC[C@]3(C)[C@H](CC[C@@H]4[C@@]5(C)CC[C@H](O)C(C)(C)[C@@H]5CC[C@]43C)[C@@H]12` [betulin powder], the “Plasma level, times higher than aqueous suspension of BBE powder in this study” value [5] is given as ~1000 times and the “Betulin in blood plasma” value [6] is given as 6.9 µg/mL.
In the case of `CC(C)(C)c1cc(O)ccc1O` [TBHQ in oil, tertiary butylhydroquinone], the Induction period ([7]; oxygen 8–8.5 bar, 120 °C) is reported as 3.5 h and the Protection factor ([7]; vs blank sunflower oil) is reported as 2.7.
For `C=C(C)[C@@H]1CC[C@]2(C(=O)O)CC[C@]3(C)[C@H](CC[C@@H]4[C@@]5(C)CC[C@H](O)C(C)(C)[C@@H]5CC[C@]43C)[C@@H]12` [betulinic acid], the “Content in heart, liver, kidney, brain tissues” value [1] was “not detected; also recorded: not found”.
In the case of `C=C(C)[C@@H]1CC[C@]2(CO)CC[C@]3(C)[C@H](CC[C@@H]4[C@@]5(C)CC[C@H](O)C(C)(C)[C@@H]5CC[C@]43C)[C@@H]12` [betulin], the “Content in heart, liver, kidney, brain tissues” value [1] is reported as “not detected; also recorded: not found”.
